Here are results for five compounds from article PMC7375528, “Piperidine scaffold as the novel P2-ligands in cyclopropyl-containing HIV-1 protease inhibitors: Structure-based design, synthesis, biological evaluation and docking study” (PLoS ONE, 2020).

What is called IC50 is the concentration needed to halve the response being measured. One may read the inhibition as the percentage by which the read-out fell short of the control. As a reminder, the CC50 is the concentration that lowers cell viability or growth by half. The low end stands for harm at low concentration, the high end for better tolerance by the cells. As a reminder, the melting point is the temperature of the solid-liquid transition.

Series [1] addresses T1, wild-type HIV-1 PR (Human immunodeficiency virus type 1 group M subtype B, UniProt P04585).
T1 construct: HIV-1 protease was cloned and heterologously expressed in Escherichia coli and purified; made in house; host or cells: Escherichia coli
In words: In vitro HIV-1 PR activity assay (FRET). Type of series: biochemical. The procedure:
(§1) The inhibitory effect of all new designed inhibitors were measured using fluorescence resonance energy transfer (FRET) method. […] The energy transfer donor (EDANS) and acceptor (DABCYL) dyes are labeled at two ends of the peptide to perform FRET. Excitation and emission wavelengths were set at 340 nm and 490 nm. Inhibitors were dissolved in dimethylsulfoxide (DMSO) and diluted to appropriate concentrations. HIV-1 protease was cloned and heterologously expressed in Escherichia coli and purified. The experiment was carried out in 96-well plates. The FRET assay reaction buffer contained 0.1 M sodium acetate, 1 M sodium chloride, 1 mM ethylenediaminetetraacetic acid (EDTA), 1 mM dithiothreitol (DTT), 2% DMSO and 1 mg/mL bovine serum albumin (BSA) with an adjusted pH 4.7. Protease and inhibitor were mixed and incubated for 20–30 mins at room temperature and then the substrate was added. Each reaction was recorded for about 10 mins. From plots of concentration versus the calculated percent inhibition, IC50 values were determined.
as §1, with “20-30” for “20–30”, “mins.” for “mins. From plots of concentration versus the calculated percent inhibition, IC50 values were determined.”

In series [2] the test system is wild-type HIV-1 variants. The series is described as follows: HIV-1 infectivity assay, wild-type. The following applies: Human immunodeficiency virus 1, read-out: inhibition against wild-type HIV-1 variants. In kind it is cell-based. The procedure:
(§2) . Inhibitors dissolved in dimethylsulfoxide (DMSO) and diluted to appropriate concentrations, were added into culture medium at 5 hours of post-transfection. After incubating for 48 hours at temperature 37 °C, pseudotyped viruses in 10 μL of supernatant were used to infect SupT1 cells for 48 hours, followed by measuring luciferase activity of newly infected cells using Centro LB960 (Berthold).
For the assay using wild type HIV-1, 1×10^6 SupT1 cells were infected with 100 μL HIV-1 NL4-3 in the presence of 100 nM chemicals and 10 μg/mL polybrene, keeping a total volume of 500 μL (Spin infection at 1800rpm, 45min). Cells were washed once in the next morning and medium were replaced with fresh medium containing 100 nM chemicals. At 48 hpi, viruses were harvested and 50 μL of viruses were used to infect TZM-bl cells, followed by measuring luciferase activity in the infected cells.
(§3) Fig 6 Inhibition of inhibitors against wild-type and DRV-resistant HIV-1 variants.

Series [3] has as its system DRV-resistant HIV-1 variants. The series is described as follows: HIV-1 infectivity assay, DRV-resistant. Type of series: cell-based. The conditions noted are these: Human immunodeficiency virus 1, read-out: inhibition against DRV-resistant HIV-1 variants. The procedure: as §2, §3
Series [4] in a line: Cytotoxicity assay (cell counting kit-8). Type of series: cell-based. The conditions noted are these: human; 293T cells, CCK-8, 24h exposure. The procedure: Selected inhibitors were further evaluated in cytotoxicity assay using a cell counting kit-8 assay. […] After 24h of culture, 1μL of drugs were added to each well. After another 24h of culture, 10 μL of CCK-8 was added to each well. Absorbance was quantified at wavelength 450 nm using an EnVision multilabel reader (PerkinElmer) after 2h at room temperature.
In general terms: Tetrazolium assays rely on reduction of a dye to a coloured formazan, in cell work by metabolically active cells.

The test system of series [5] is HIV-1 protease. Further details: method as in PMID 32057582. The following applies: previously reported PIs; cited from earlier work.

On to `COc1ccc(S(=O)(=O)N(C[C@@H](O)[C@H](Cc2ccccc2)NC(=O)[C@@H]2CCCNC2)C2CC2)cc1` [22a, (R)-N-((2S,3R)-4-((N-cyclopropyl-4-methoxyphenyl)sulfonamido)-3-hydroxy-1-phenylbutan-2-yl)piperidine-3-carboxamide], for which the melting point lay in the range of 162.8 to 164.3 °C. This compound also came in with an IC50 in series [1] of 3.61 nM. For the same compound, the “improvement of potency over 23a” value in series [1] (ratio of IC50 values, (R)- vs (S)-configuration) worked out at 120 fold. Besides, the inhibition at 10 µM in series [2] worked out at 42%. For the same compound, the inhibition at 10 µM in series [3] came out at 26%. The compound also had a CC50 at 24 h in series [4] greater than 100000 nM.
With `COc1ccc(S(=O)(=O)N(C[C@@H](O)[C@H](Cc2ccccc2)NC(=O)[C@@H]2CCCN(C)C2)C2CC2)cc1` [24a, (R)-N-((2S,3R)-4-((N-cyclopropyl-4-methoxyphenyl)sulfonamido)-3-hydroxy-1-phenylbutan-2-yl)-1-methylpiperidine-3-carboxamide], the melting point was 86.4 to 88.2 °C. For the same compound, the IC50 in series [1] stood at 8.07 ± 3.59 nM. The inhibition at 10 µM in series [2] turned out to be 16%. Also, in series [3], the inhibition at 10 µM amounted to 8%. The compound also gave a CC50 at 24 h in series [4] greater than 100000 nM.
Regarding `CN1CCC[C@@H](C(=O)N[C@@H](Cc2ccccc2)[C@H](O)CN(C2CC2)S(=O)(=O)c2ccc(C(F)(F)F)cc2)C1` [24b, (R)-N-((2S,3R)-4-((N-cyclopropyl-4-(trifluoromethyl)phenyl)sulfonamido)-3-hydroxy-1-phenylbutan-2-yl)-1-methylpiperidine-3-carboxamide], the melting point lay in the range of 82.9 to 84.7 °C. In addition, it took 9.28 ± 5.66 nM to reach half-maximal inhibition in series [1] (IC50). Further, the inhibition at 10 µM in series [2] worked out at 12%. For the same compound, in series [3], the inhibition at 10 µM came to 7%. The CC50 at 24 h in series [4] was greater than 100000 nM.
With `COc1ccc(S(=O)(=O)N(C[C@@H](O)[C@H](Cc2ccccc2)NC(=O)OCCN2CCOCC2)C2CC2)cc1` [A], the IC50 in series [5] is 53 nM.
On to `O=C(N[C@@H](Cc1ccccc1)[C@H](O)CN(C1CC1)S(=O)(=O)c1ccc(C(F)(F)F)cc1)N1CCOCC1` [B], for which the IC50 in series [5] was 47 nM.
